The record followed here is US7763644B2, “Imidazole derivatives, processes for preparing them and their uses” (UCB Pharma, S.A., priority 2003, dated 2010).

pKi: −log10 of the molar value. “Also recorded” adds a separate entry of the source.

Test [1] has as its target T1, LBS (Rattus norvegicus, UniProt Q02563).
T1 construct: from tissue; host or cells: rat brain (crude membranes)
As to the kind of experiment: Competition binding curves against [^3H]-compound 7, rat brain membranes. The protocol: FIGS. 2a and 2b depict competition binding curves showing that compound 7 binds to LBS with about 30 fold higher affinity than levetiracetam. […] (M). Test drugs are levetiracetam (2a) and compound 7 (2b).
Binding experiments were conducted on crude rat brain membranes at 4° C. as described in Noyer M. et al. (Euro. J. Pharmacol. (1995), 286, 137-146). Incubation time for equilibrium studies was 120 min. […] The Bmax being similar to the value estimated using [^3H]-L059 as radioligand in similar membrane preparations (5 pmol/mg protein).

Test [2] concerns the target T2, hSV2C (Homo sapiens, UniProt Q496J9).
T2 construct: expressed in transfected cells; host or cells: COS-7 (transient transfection)
T2 sequence (Q496J9 1-727): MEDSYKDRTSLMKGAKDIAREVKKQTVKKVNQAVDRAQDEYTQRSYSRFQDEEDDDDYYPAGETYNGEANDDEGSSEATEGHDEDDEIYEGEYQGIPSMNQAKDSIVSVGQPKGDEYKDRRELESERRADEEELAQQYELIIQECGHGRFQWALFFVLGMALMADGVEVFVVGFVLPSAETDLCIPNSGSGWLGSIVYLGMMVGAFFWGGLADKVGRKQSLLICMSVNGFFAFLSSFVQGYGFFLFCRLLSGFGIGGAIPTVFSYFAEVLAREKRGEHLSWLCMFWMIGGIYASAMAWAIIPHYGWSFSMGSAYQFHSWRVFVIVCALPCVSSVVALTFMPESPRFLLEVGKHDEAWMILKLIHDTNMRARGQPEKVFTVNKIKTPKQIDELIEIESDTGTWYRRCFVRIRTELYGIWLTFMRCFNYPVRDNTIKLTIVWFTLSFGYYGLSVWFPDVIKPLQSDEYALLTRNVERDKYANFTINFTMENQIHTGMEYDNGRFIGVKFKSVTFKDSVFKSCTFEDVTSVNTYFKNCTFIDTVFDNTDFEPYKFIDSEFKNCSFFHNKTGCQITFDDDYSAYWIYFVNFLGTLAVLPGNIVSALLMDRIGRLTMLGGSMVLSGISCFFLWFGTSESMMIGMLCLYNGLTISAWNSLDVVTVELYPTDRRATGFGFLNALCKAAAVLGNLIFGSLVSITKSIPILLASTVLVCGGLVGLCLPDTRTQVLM
As to the kind of experiment: IC50 of unlabelled ligands against SV2C, [^3H]-compound 7 as probe. Type of test: binding. The settings on record: [^3H]-compound 7 as labeled probe, FIG. 6. From the text:
(M). Depicted are the IC50 curves of compound 7 binding to hSV2A (x) and hSV2C (□), and compound Z binding to hSV2A (▪) and hSV2C (⋄).
(§1) This confirms that labeled-compound Z has poor affinity for utilizing as a probe against SV2C, and that labeled-compound 7 is a preferred probe to utilize in screening against SV2C.

The target of test [3] is human SV2A (Homo sapiens, UniProt Q7L0J3). As to the kind of experiment: Radioligand binding to SV2A under standard conditions.
Source text: as §1

Test [4] concerns the target T2, hSV2C. As to the kind of experiment: Radioligand binding to COS-7 cells transfected with SV2C. Conditions: displaced by excess levetiracetam, FIG. 5.
Source text: as §1

In test [5] the target is T3, LBS/SV2A (Rattus norvegicus, UniProt Q02563).
T3 construct: from tissue; host or cells: rat brain (crude membranes)
As to the kind of experiment: Photolabelling of LBS in rat brain membranes, SDS-PAGE. Type of test: binding. The settings on record: UV irradiated rat brain membranes, gel slicing. An excerpt:
Y-axis represents the radioactivity (DPM) in gel slices and X-axis represents the gel slice number. Each number and arrow in the graph represents the position and the size in kilodaltons of molecular weight standards.
This example provides a photoactivable ligand for labelling SV2A/LBS and its detection in biological samples. This ligand was designed to cross-link to the LBS/SV2A with an azidophenyl motif capable of forming a covalent complex with the protein upon UV light irradiation.

Test [6] has as its system untransfected cells. As to the kind of experiment: Radioligand binding to untransfected COS-7 cells. The settings on record: FIG. 5, bars 2.

T1 sequence (Q02563 whole entry): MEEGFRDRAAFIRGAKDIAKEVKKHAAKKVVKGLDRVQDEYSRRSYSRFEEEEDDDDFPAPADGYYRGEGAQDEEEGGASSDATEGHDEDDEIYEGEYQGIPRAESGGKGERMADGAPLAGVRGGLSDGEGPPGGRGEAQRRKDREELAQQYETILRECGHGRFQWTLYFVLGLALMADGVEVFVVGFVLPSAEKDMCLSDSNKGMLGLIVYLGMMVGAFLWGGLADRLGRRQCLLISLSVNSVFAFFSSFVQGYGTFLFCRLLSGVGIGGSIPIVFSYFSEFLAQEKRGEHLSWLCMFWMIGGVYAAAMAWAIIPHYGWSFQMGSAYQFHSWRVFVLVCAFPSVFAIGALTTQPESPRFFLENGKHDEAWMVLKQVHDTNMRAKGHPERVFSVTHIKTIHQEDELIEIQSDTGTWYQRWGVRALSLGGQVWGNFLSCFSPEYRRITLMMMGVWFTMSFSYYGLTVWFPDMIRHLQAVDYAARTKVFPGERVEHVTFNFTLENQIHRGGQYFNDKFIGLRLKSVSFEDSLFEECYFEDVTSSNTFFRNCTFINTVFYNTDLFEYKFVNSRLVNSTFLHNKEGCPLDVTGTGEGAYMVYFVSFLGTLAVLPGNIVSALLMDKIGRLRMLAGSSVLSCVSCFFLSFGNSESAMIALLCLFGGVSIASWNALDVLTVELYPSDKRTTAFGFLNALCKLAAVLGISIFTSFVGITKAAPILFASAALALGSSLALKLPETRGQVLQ
Sequence of human SV2A (Q7L0J3 whole entry): as the sequence (Q02563 whole entry) above, with E53D, A62S, A71T, D144E, T154A, S440G, A482S, V572I, L634M counted along it
T3 sequence (Q02563 whole entry): as the sequence (Q02563 whole entry) above

As to `[N-]=[N+]=Nc1c(F)ccc(C2CC(=O)N(Cn3ccnc3)C2)c1F` (single isomer, unassigned; (+)) [compound 7, (+)-4-(3-azido-2,4-difluorophenyl)-1-(1H-imidazol-1-ylmethyl)pyrrolidin-2-one], in test [1] (FIG. 2), the “fold higher affinity for LBS than levetiracetam (L059)” value is listed as “about 30 fold”. In test [1] (rat brain membranes), the pKi – broadly, the negative decadic logarithm of the Ki, by convention in mol/L – was 7.50. In addition, the “affinity to SV2C compared with SV2A (IC50 curves)” value in test [2] was “equivalent affinities”.

As to `CC[C@@H](C(N)=O)N1CC(c2cccc(N=[N+]=[N-])c2)CC1=O` (stereo partly drawn) [[^3H]-compound Z, reference compound], the “binding of radioligand to SV2A” value in test [3] is listed as “binds well”. The “binding of radioligand to SV2C expressed in COS-7 cells” value in test [4] is on record as “absence of specific binding; also recorded: lack of binding”.

Regarding `CC[C@@H](C(N)=O)N1CC(c2cccc(N=[N+]=[N-])c2)CC1=O` (stereo partly drawn) [compound Z, (2S)-2-[4-(3-azidophenyl)-2-oxopyrrolidin-1-yl]butanamide], the “affinity to SV2C compared with SV2A (IC50 curves)” value in test [2] is recorded as “different affinities; also recorded: much weaker affinity”.

As to “[^3H]-(+)-4-(3-azido-2,4-difluorophenyl)-1-(1H-imidazol-1-ylmethyl)pyrrolidin-2-one [[^3H]-compound 7]”, the “binding of radioligand to SV2C expressed in COS-7 cells” value in test [4] was “specific binding; also recorded: binds well”. Besides, the “size of the protein the radiolabel incorporates into” value in test [5] came out at 90 kDa. Further, in test [6], the “specific binding of radioligand in untransfected cells” value was “no specific binding”.
